In ChEMBL document CHEMBL1132959, “Design of potent dicyclic (1-5/4-10) gonadotropin releasing hormone (GnRH) antagonists” (J Med Chem, 2000):

Tests used:
Rattus norvegicus [1] = species on record: Rattus norvegicus; assay: Antiovulatory potency at 1000 ug/rat expressed as rats ovulating by total no. of rats (4/4); format: functional
Rattus norvegicus [2] = species on record: Rattus norvegicus; assay: Antiovulatory potency at 10 ug/rat expressed as rats ovulating by total no. of rats (2/7); format: functional
[3] = target: T1, Gonadotropin-releasing hormone receptor (Rattus norvegicus, UniProt P30969); assay: Affinity for rat gonadotrophin releasing hormone (GnRH) receptor using HEK293 cells transfected with rat Gonadotropin-releasing hormone receptor; format: cell-based; settings: hek293
T1 sequence (P30969 whole entry): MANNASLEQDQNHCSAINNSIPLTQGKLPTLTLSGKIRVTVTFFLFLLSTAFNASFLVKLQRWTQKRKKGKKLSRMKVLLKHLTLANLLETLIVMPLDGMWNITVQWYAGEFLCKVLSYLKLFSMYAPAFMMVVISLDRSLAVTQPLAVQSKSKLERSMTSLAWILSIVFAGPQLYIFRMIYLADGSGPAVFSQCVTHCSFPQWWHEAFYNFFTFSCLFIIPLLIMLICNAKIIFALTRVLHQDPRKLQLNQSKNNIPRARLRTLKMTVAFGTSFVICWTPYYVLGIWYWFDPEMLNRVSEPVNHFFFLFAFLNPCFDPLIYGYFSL

Rattus norvegicus [4] = species on record: Rattus norvegicus; assay: Antiovulatory potency at 5 ug/rat expressed as rats ovulating by total no. of rats (3/3); format: functional
Rattus norvegicus [5] = species on record: Rattus norvegicus; assay: Antiovulatory potency at 1000 ug/rat expressed as rats ovulating by total no. of rats (3/3); format: functional
Rattus norvegicus [6] = species on record: Rattus norvegicus; assay: Antiovulatory potency at 250 ug/rat expressed as rats ovulating by total no. of rats (0/5); format: functional
Rattus norvegicus [7] = species on record: Rattus norvegicus; assay: Antiovulatory potency at 100 ug/rat expressed as rats ovulating by total no. of rats (1/8); format: functional
[8] = target: T1, Gonadotropin-releasing hormone receptor; assay: Affinity for rat Gonadotropin-releasing hormone receptor membrane evaluated using HEK293 cells transfected with rat Gonadotropin-releasing hormone receptor; format: cell-based
Rattus norvegicus [9] = species on record: Rattus norvegicus; assay: Antiovulatory potency at 100 ug/rat expressed as rats ovulating by total no. of rats (0/8); format: functional
Rattus norvegicus [10] = species on record: Rattus norvegicus; assay: Antiovulatory potency at 25 ug/rat expressed as rats ovulating by total no. of rats (5/5); format: functional
Rattus norvegicus [11] = species on record: Rattus norvegicus; assay: Antiovulatory potency at 50 ug/rat expressed as rats ovulating by total no. of rats (1/8); format: functional
Rattus norvegicus [12] = species on record: Rattus norvegicus; assay: Antiovulatory potency at 500 ug/rat expressed as rats ovulating by total no. of rats (6/6); format: functional
Rattus norvegicus [13] = species on record: Rattus norvegicus; assay: Antiovulatory potency at 10 ug/rat expressed as rats ovulating by total no. of rats (5/5); format: functional
Rattus norvegicus [14] = species on record: Rattus norvegicus; assay: Antiovulatory potency at 250 ug/rat expressed as rats ovulating by total no. of rats (0/4); format: functional
Rattus norvegicus [15] = species on record: Rattus norvegicus; assay: Antiovulatory potency at 100 ug/rat expressed as rats ovulating by total no. of rats (14/14); format: functional
Rattus norvegicus [16] = species on record: Rattus norvegicus; assay: Antiovulatory potency at 2.5 ug/rat expressed as rats ovulating by total no. of rats (2/8); format: functional
Rattus norvegicus [17] = species on record: Rattus norvegicus; assay: Antiovulatory potency at 1 ug/rat expressed as rats ovulating by total no. of rats (5/7); format: functional
Rattus norvegicus [18] = species on record: Rattus norvegicus; assay: Antiovulatory potency at 5 ug/rat expressed as rats ovulating by total no. of rats (3/4); format: functional
Rattus norvegicus [19] = species on record: Rattus norvegicus; assay: Antiovulatory potency at 25 ug/rat expressed as rats ovulating by total no. of rats (1/5); format: functional
Rattus norvegicus [20] = species on record: Rattus norvegicus; assay: Antiovulatory potency at 10 ug/rat expressed as rats ovulating by total no. of rats (4/8); format: functional
Rattus norvegicus [21] = species on record: Rattus norvegicus; assay: Antiovulatory potency at 25 ug/rat expressed as rats ovulating by total no. of rats (0/3); format: functional
Rattus norvegicus [22] = species on record: Rattus norvegicus; assay: Antiovulatory potency at 10 ug/rat expressed as rats ovulating by total no. of rats (2/8); format: functional
Rattus norvegicus [23] = species on record: Rattus norvegicus; assay: Antiovulatory potency at 1000 ug/rat expressed as rats ovulating by total no. of rats (5/5); format: functional

Structure (SMILES): CC(=O)N[C@H](Cc1ccc2ccccc2c1)C(=O)N[C@@H]1CCC(=O)NCCCC[C@@H]2NC(=O)[C@H](CC(C)C)NC(=O)[C@@H](Cc3ccc4ccccc4c3)NC(=O)[C@H](CCCN=C(N)N)NC(=O)[C@H](CC(=O)NC[C@@H](C(N)=O)NC(=O)[C@@H]3CCCN3C2=O)NC(=O)[C@@H](Cc2cccnc2)NC1=O
- Ovulating rats (Rattus norvegicus [1]): 4

Structure (SMILES): CC(=O)N[C@@H]1CCC(=O)NCC(=O)NC[C@H]2NC(=O)[C@@H](CC(=O)NC[C@H](C(N)=O)NC(=O)[C@H]3CCCN3C(=O)[C@H](CCCN=C(N)N)NC(=O)[C@@H](CC(C)C)NC(=O)[C@@H](Cc3ccc4ccccc4c3)NC2=O)NC(=O)[C@@H](Cc2c[nH]c3ccccc23)NC(=O)[C@H](Cc2ccc(Cl)cc2)NC1=O
- Ovulating rats (Rattus norvegicus [2]): 2
- Ki [3]: 0.44 nM
- Ovulating rats (Rattus norvegicus [4]): 3

Structure (SMILES): CC(=O)N[C@H]1CCC(=O)NCCCC[C@@H](C(=O)N2CCC[C@H]2C(=O)N[C@@H](C)C(N)=O)NC(=O)[C@H](CC(C)C)NC(=O)[C@H](Cc2ccc3ccccc3c2)NC(=O)[C@H](CCCNC(=N)N)NC(=O)[C@H](C)NC(=O)[C@H](Cc2cccnc2)NC(=O)[C@H](Cc2ccc(Cl)cc2)NC1=O
- Ovulating rats (Rattus norvegicus [1]): 4
- Ki [3]: 62 nM

Structure (SMILES): CC(=O)N[C@H](Cc1ccc2ccccc2c1)C(=O)N[C@@H]1CCC(=O)NCCCC[C@@H](C(=O)N2CCC[C@H]2C(=O)N[C@H](C)C(N)=O)NC(=O)[C@H](CC(C)C)NC(=O)[C@@H](Cc2ccc3ccccc3c2)NC(=O)[C@H](CCCN=C(N)N)NC(=O)[C@H](C)NC(=O)[C@@H](Cc2cccnc2)NC1=O
- Ovulating rats (Rattus norvegicus [5]): 3

Structure (SMILES): CC(=O)N[C@H](Cc1ccc2ccccc2c1)C(=O)N[C@@H]1CC(=O)NC[C@@H](C(=O)N2CCC[C@H]2C(=O)N[C@H](C)C(N)=O)NC(=O)[C@H](CC(C)C)NC(=O)[C@@H](Cc2ccc3ccccc3c2)NC(=O)[C@H](CCCNC(=N)N)NC(=O)[C@H](C)NC(=O)[C@@H](Cc2cccnc2)NC1=O
- Ovulating rats (Rattus norvegicus [1]): 4

Structure (SMILES): CC(=O)N[C@@H]1CCC(=O)NCC[C@H]2NC(=O)[C@@H](CC(=O)NC[C@H](C(N)=O)NC(=O)[C@H]3CCCN3C(=O)[C@H](CCCN=C(N)N)NC(=O)[C@@H](CC(C)C)NC(=O)[C@@H](Cc3ccc4ccccc4c3)NC2=O)NC(=O)[C@@H](Cc2c[nH]c3ccccc23)NC(=O)[C@H](Cc2ccc(Cl)cc2)NC1=O
- Ki [3]: 1.7 nM
- Ovulating rats (Rattus norvegicus [6]): 0
- Ovulating rats (Rattus norvegicus [7]): 1

Structure (SMILES): CC(=O)N[C@H](Cc1ccc2ccccc2c1)C(=O)N[C@H](Cc1ccc(Cl)cc1)C(=O)N[C@@H]1CCC(=O)NCCCC[C@@H](C(=O)N2CCC[C@H]2C(=O)N[C@H](C)C(N)=O)NC(=O)[C@H](CC(C)C)NC(=O)[C@@H](Cc2ccc3ccccc3c2)NC(=O)[C@H](CCCN=C(N)N)NC(=O)[C@H](C)NC1=O
- Ovulating rats (Rattus norvegicus [5]): 3

Structure (SMILES): CC(=O)N[C@H]1CCC(=O)NCC(=O)NCC[C@H]2NC(=O)[C@H](CC(=O)NC[C@@H](C(N)=O)NC(=O)[C@@H]3CCCN3C(=O)[C@H](CCCNC(=N)N)NC(=O)[C@H](CC(C)C)NC(=O)[C@@H](Cc3ccc4ccccc4c3)NC2=O)NC(=O)[C@@H](Cc2c[nH]c3ccccc23)NC(=O)[C@@H](Cc2ccc(Cl)cc2)NC1=O
- Ki [8]: 2.9 nM

Structure (SMILES): CC(=O)N[C@@H]1CCC(=O)NCC(=O)NCC[C@@H]2NC(=O)[C@@H](CC(=O)NC[C@H](C(N)=O)NC(=O)[C@H]3CCCN3C(=O)[C@H](CCCN=C(N)N)NC(=O)[C@@H](CC(C)C)NC(=O)[C@@H](Cc3ccc4ccccc4c3)NC2=O)NC(=O)[C@@H](Cc2c[nH]c3ccccc23)NC(=O)[C@H](Cc2ccc(Cl)cc2)NC1=O
- Ovulating rats (Rattus norvegicus [9]): 0
- Ovulating rats (Rattus norvegicus [10]): 5
- Ovulating rats (Rattus norvegicus [11]): 1

Structure (SMILES): CC(=O)N[C@H]1CSSC[C@@H]2NC(=O)[C@@H](CC(=O)NC[C@H](C(N)=O)NC(=O)[C@H]3CCCN3C(=O)[C@H](CCCN=C(N)N)NC(=O)[C@@H](CC(C)C)NC(=O)[C@H](CCCN=C(N)N)NC2=O)NC(=O)[C@@H](Cc2c[nH]c3ccccc23)NC(=O)[C@H](Cc2ccc(Cl)cc2)NC1=O
- Ovulating rats (Rattus norvegicus [12]): 6
- Ki [3]: 89 nM

Structure (SMILES): CC(=O)N[C@@H]1CCC(=O)N[C@@H](C)C(=O)NCC[C@H]2NC(=O)[C@@H](CC(=O)NC[C@H](C(N)=O)NC(=O)[C@H]3CCCN3C(=O)[C@H](CCCN=C(N)N)NC(=O)[C@@H](CC(C)C)NC(=O)[C@@H](Cc3ccc4ccccc4c3)NC2=O)NC(=O)[C@@H](Cc2c[nH]c3ccccc23)NC(=O)[C@H](Cc2ccc(Cl)cc2)NC1=O
- Ovulating rats (Rattus norvegicus [13]): 5
- Ki [3]: 1.6 nM

Structure (SMILES): CC(=O)N[C@H](Cc1ccc2ccccc2c1)C(=O)N[C@H](Cc1ccc(Cl)cc1)C(=O)N[C@@H]1CC(=O)NC[C@@H](C(=O)N2CCC[C@H]2C(=O)N[C@H](C)C(N)=O)NC(=O)[C@H](CC(C)C)NC(=O)[C@@H](Cc2ccc3ccccc3c2)NC(=O)[C@H](CCCN=C(N)N)NC(=O)[C@H](C)NC1=O
- Ovulating rats (Rattus norvegicus [1]): 4

Structure (SMILES): CC(=O)N[C@H](Cc1ccc2ccccc2c1)C(=O)N[C@H](Cc1ccc(Cl)cc1)C(=O)N[C@@H]1CC(=O)NCC[C@@H](C(=O)N2CCC[C@H]2C(=O)N[C@H](C)C(N)=O)NC(=O)[C@H](CC(C)C)NC(=O)[C@@H](Cc2ccc3ccccc3c2)NC(=O)[C@H](CCCN=C(N)N)NC(=O)[C@H](C)NC1=O
- Ovulating rats (Rattus norvegicus [14]): 0
- Ovulating rats (Rattus norvegicus [15]): 14

Structure (SMILES): CC(=O)N[C@@H]1CC(=O)NCC(=O)NCC[C@H]2NC(=O)[C@@H](CC(=O)NC[C@H](C(N)=O)NC(=O)[C@H]3CCCN3C(=O)[C@H](CCCN=C(N)N)NC(=O)[C@@H](CC(C)C)NC(=O)[C@@H](Cc3ccc4ccccc4c3)NC2=O)NC(=O)[C@@H](Cc2ccc3ccccc3c2)NC(=O)[C@H](Cc2ccc(Cl)cc2)NC1=O
- Ovulating rats (Rattus norvegicus [16]): 2
- Ki [3]: 0.38 nM
- Ovulating rats (Rattus norvegicus [17]): 5

Structure (SMILES): CC(=O)N[C@@H]1CCC(=O)NCCC(=O)NC[C@H]2NC(=O)[C@@H](CC(=O)NC[C@H](C(N)=O)NC(=O)[C@H]3CCCN3C(=O)[C@H](CCCN=C(N)N)NC(=O)[C@@H](CC(C)C)NC(=O)[C@@H](Cc3ccc4ccccc4c3)NC2=O)NC(=O)[C@@H](Cc2c[nH]c3ccccc23)NC(=O)[C@H](Cc2ccc(Cl)cc2)NC1=O
- Ki [3]: 0.76 nM
- Ovulating rats (Rattus norvegicus [18]): 3
- Ovulating rats (Rattus norvegicus [19]): 1
- Ovulating rats (Rattus norvegicus [20]): 4

Structure (SMILES): CC(=O)N[C@H](Cc1ccc2ccccc2c1)C(=O)N[C@H]1CC(=O)NCC(=O)NC[C@@H]2NC(=O)[C@H](Cc3ccc(O)cc3)NC(=O)[C@H](CC(=O)NC[C@@H](C(N)=O)NC(=O)[C@@H]3CCCN3C(=O)[C@H](CCCN=C(N)N)NC(=O)[C@H](CC(C)C)NC2=O)NC(=O)[C@@H](Cc2c[nH]c3ccccc23)NC1=O
- Ovulating rats (Rattus norvegicus [1]): 4
- Ki [3]: 490 nM

Structure (SMILES): CC(=O)N[C@@H]1CCC(=O)NCCCC[C@@H](C(=O)N2CCC[C@H]2C(=O)N[C@@H](C)C(N)=O)NC(=O)[C@H](CC(C)C)NC(=O)[C@H](Cc2ccc3ccccc3c2)NC(=O)[C@H](CCCNC(=N)N)NC(=O)[C@H](C)NC(=O)[C@H](Cc2cccnc2)NC(=O)[C@H](Cc2ccc(Cl)cc2)NC1=O
- Ovulating rats (Rattus norvegicus [1]): 4
- Ki [3]: 55 nM

Structure (SMILES): CC(=O)N[C@@H]1CC(=O)NCC(=O)NC[C@H]2NC(=O)[C@@H](CC(=O)NC[C@H](C(N)=O)NC(=O)[C@H]3CCCN3C(=O)[C@H](CCCN=C(N)N)NC(=O)[C@@H](CC(C)C)NC(=O)[C@@H](Cc3ccc4ccccc4c3)NC2=O)NC(=O)[C@@H](Cc2c[nH]c3ccccc23)NC(=O)[C@H](Cc2ccc(Cl)cc2)NC1=O
- Ki [3]: 0.49 nM
- Ovulating rats (Rattus norvegicus [21]): 0
- Ovulating rats (Rattus norvegicus [22]): 2

Structure (SMILES): CC(C)C[C@@H]1NC(=O)[C@@H](Cc2ccc3ccccc3c2)NC(=O)[C@H](CCCN=C(N)N)NC(=O)[C@H](C)NC(=O)[C@@H](Cc2cccnc2)NC(=O)[C@@H](Cc2ccc(Cl)cc2)NC(=O)[C@@H](Cc2ccc3ccccc3c2)NC(=O)CCC(=O)NCCCC[C@@H](C(=O)N2CCC[C@H]2C(=O)N[C@H](C)C(N)=O)NC1=O
- Ovulating rats (Rattus norvegicus [23]): 5
